Experimental data from PubChem BioAssay (NCI).
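Interpolation was linear, between the two tested concentrations surrounding the appropriate level; five concentrations were tested over 48 hours in 96-well plates. At the GI50, growth is halved. Definition used: TGI = concentration required for complete inhibition of growth.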

Legend:
Experiment in all cases: NCI-60 cell line screen, 48 h
[1] = test system: OVCAR-4 ovarian
[2] = test system: SNB-75 CNS
[3] = test system: PC-3 prostate
[4] = test system: RXF 393 renal
[5] = test system: HOP-92 NSCLC
[6] = test system: A498 renal
[7] = test system: SF-539 CNS
[8] = test system: HCT-116 colon
[9] = test system: TK-10 renal
[10] = test system: HOP-62 NSCLC

## Cc1ccc(NC2=CC(=O)C(=O)c3ccccc32)c(C)c1
[1]
  GI50: 2.53 µM
  TGI: 12.2 µM
[2]
  GI50: 1.57 µM
  TGI: 3.49 µM
[3]
  GI50: 3.37 µM
  TGI: 17.1 µM
[4]
  GI50: 9.59 µM
  TGI: 21.6 µM
[5]
  GI50: 13.3 µM
  TGI: 42.3 µM
[6]
  GI50: 4.69 µM
  TGI: 17.8 µM
[7]
  GI50: 3.63 µM
  TGI: 13.2 µM
[8]
  GI50: 1.66 µM
  TGI: 4.23 µM
[9]
  GI50: 0.596 µM
  TGI: 12.2 µM
[10]
  GI50: 3.24 µM
  TGI: 12.5 µM

## CCOC(=O)n1c2ccccc2c(=O)n1CCO
[1]
  TGI: > 100 µM
[2]
  TGI: > 100 µM
[3]
  TGI: > 100 µM
[4]
  TGI: > 100 µM
[6]
  TGI: > 100 µM
[7]
  TGI: > 100 µM
[8]
  TGI: > 100 µM
[9]
  TGI: > 100 µM
[10]
  TGI: > 100 µM

## Cc1ccc(O)cc1Nc1ccnc2cc(-c3ccccn3)ccc12
[1]
  GI50: 1.82 µM
  TGI: 11.7 µM
[2]
  GI50: 0.405 µM
  TGI: 3.43 µM
[3]
  GI50: 3.08 µM
  TGI: 10.4 µM
[4]
  GI50: 1.95 µM
  TGI: 5.37 µM
[5]
  GI50: 0.292 µM
  TGI: 3.02 µM
[6]
  GI50: 1.83 µM
  TGI: 5.04 µM
[7]
  GI50: 3.08 µM
  TGI: 6.68 µM
[8]
  GI50: 3.49 µM
  TGI: 6.96 µM
[9]
  GI50: 1.36 µM
  TGI: 4.23 µM
[10]
  GI50: 3.48 µM
  TGI: 8.59 µM

## N#Cc1cccc(C2C3=C(COC3=O)N(CCO)c3cc4c(cc32)CCC4)c1 (configuration not stated)
[1]
  GI50: 0.374 µM
  TGI: > 50 µM
[2]
  GI50: 0.0393 µM
[3]
  GI50: 0.15 µM
  TGI: > 50 µM
[4]
  GI50: 0.119 µM
  TGI: > 50 µM
[5]
  GI50: 0.871 µM
  TGI: 35.3 µM
[6]
  GI50: 0.0411 µM
  TGI: 0.303 µM
[7]
  GI50: 0.112 µM
  TGI: 0.356 µM
[8]
  GI50: 0.143 µM
  TGI: 13.3 µM
[9]
  GI50: 0.436 µM
  TGI: > 50 µM
[10]
  GI50: 0.25 µM
  TGI: > 50 µM

## CCc1c(C#N)c(SC(C(N)=O)c2ccccc2)nc(N2CCC(N)CC2)c1C#N (configuration not stated)
[1]
  GI50: 15.5 µM
  TGI: 34.3 µM
[2]
  GI50: 11.2 µM
  TGI: 24.6 µM
[3]
  GI50: 12.9 µM
  TGI: 26.5 µM
[4]
  GI50: 10.4 µM
  TGI: 22.7 µM
[5]
  GI50: 4.56 µM
  TGI: 19.2 µM
[6]
  GI50: 15.4 µM
  TGI: 30.4 µM
[7]
  GI50: 15.3 µM
  TGI: 28.9 µM
[8]
  GI50: 13.5 µM
  TGI: 27.4 µM
[9]
  GI50: 15.3 µM
  TGI: 29.9 µM
[10]
  GI50: 15.9 µM
  TGI: 30.6 µM

## CC(=O)OC1COC(Oc2c(C)c3c4c(c2O)[C@@H](C)CC[C@@H]4[C@@H](C)C[C@H]3C=C(C)C)C(O)C1O (some centres not stated)
[1]
  GI50: 25.6 µM
  TGI: 86.5 µM
[3]
  GI50: 14.4 µM
  TGI: 31.1 µM
[4]
  GI50: 19.8 µM
  TGI: 42.3 µM
[5]
  GI50: 18.7 µM
  TGI: 36.3 µM
[6]
  GI50: 14.7 µM
  TGI: 30 µM
[8]
  GI50: 16.1 µM
  TGI: 41.3 µM
[9]
  GI50: 16.3 µM
  TGI: 31 µM
[10]
  GI50: 17.8 µM
  TGI: 34.2 µM

## COc1cc(OC)c(/C=C/C(=O)c2c(N)cc(OC)cc2OC)c(OC)c1
[1]
  GI50: 13.6 µM
  TGI: > 100 µM
[2]
  GI50: 0.338 µM
[3]
  GI50: 1.77 µM
  TGI: > 100 µM
[4]
  GI50: 0.623 µM
  TGI: 4.7 µM
[5]
  GI50: 17.6 µM
  TGI: > 94.8 µM
[6]
  GI50: 0.463 µM
[7]
  GI50: 0.365 µM
  TGI: > 25.2 µM
[8]
  GI50: 0.384 µM
  TGI: > 100 µM
[9]
  GI50: 6.64 µM
  TGI: > 100 µM
[10]
  GI50: 0.724 µM
  TGI: > 100 µM

## Cc1ccc(C(=O)N2C/C(=C/c3ccccc3)C(=O)/C(=C/c3ccccc3)C2)cc1
[1]
  GI50: 16.5 µM
  TGI: > 100 µM
[2]
  GI50: 2.58 µM
  TGI: 16.4 µM
[3]
  GI50: 6.08 µM
  TGI: > 100 µM
[4]
  GI50: 2.2 µM
  TGI: 6.39 µM
[5]
  GI50: 10.7 µM
  TGI: > 100 µM
[6]
  GI50: > 65 µM
  TGI: > 100 µM
[7]
  GI50: 9.66 µM
  TGI: 72.2 µM
[8]
  GI50: 0.226 µM
  TGI: 0.548 µM
[9]
  GI50: 20.8 µM
  TGI: 90 µM
[10]
  GI50: 4.96 µM
  TGI: 61.3 µM

## CN(c1ccc(NC(=O)NCCN2CCOCC2)cc1)c1ccnc(Nc2ccc(CS(C)(=O)=O)cc2)n1
[1]
  GI50: 19.8 µM
  TGI: > 25 µM
[2]
  GI50: > 25 µM
  TGI: > 25 µM
[3]
  GI50: > 25 µM
  TGI: > 25 µM
[4]
  GI50: > 25 µM
  TGI: > 25 µM
[5]
  GI50: 19.2 µM
  TGI: > 25 µM
[6]
  GI50: > 25 µM
  TGI: > 25 µM
[7]
  GI50: > 21.4 µM
  TGI: > 25 µM
[8]
  GI50: > 25 µM
  TGI: > 25 µM
[9]
  GI50: > 25 µM
  TGI: > 25 µM
[10]
  GI50: > 25 µM
  TGI: > 25 µM

## CN(C)c1ccc2c(c1)OC(N)=C(C#N)C2c1ccc2c(c1)CCCN2C (configuration not stated)
[1]
  GI50: 5.01 µM
  TGI: > 100 µM
[2]
  GI50: 2.27 µM
  TGI: > 100 µM
[3]
  GI50: 2.64 µM
  TGI: > 100 µM
[4]
  GI50: 1.43 µM
  TGI: 5.58 µM
[5]
  GI50: 2.82 µM
  TGI: 57 µM
[6]
  GI50: 0.228 µM
  TGI: 4.07 µM
[7]
  GI50: 2.28 µM
  TGI: 8.16 µM
[8]
  GI50: 1.6 µM
  TGI: 14.6 µM
[9]
  GI50: 10.2 µM
  TGI: 91.7 µM
[10]
  GI50: 1.83 µM
  TGI: 54.1 µM

## CCOC(=O)c1cc2cc(OCc3ccccc3)ccc2[nH]1
[1]
  GI50: > 100 µM
  TGI: > 100 µM
[2]
  GI50: 26 µM
  TGI: > 100 µM
[3]
  GI50: > 100 µM
  TGI: > 100 µM
[4]
  GI50: > 100 µM
  TGI: > 100 µM
[5]
  GI50: 62.3 µM
  TGI: > 100 µM
[6]
  GI50: > 100 µM
  TGI: > 100 µM
[7]
  GI50: > 100 µM
  TGI: > 100 µM
[8]
  GI50: > 100 µM
  TGI: > 100 µM
[9]
  GI50: > 100 µM
  TGI: > 100 µM
[10]
  GI50: 92.7 µM
  TGI: > 100 µM

## CCc1ccc(C2=NN(c3ccc(S(C)(=O)=O)cc3)C(=O)CC2)cc1
[1]
  GI50: 7.14 µM
  TGI: > 91.5 µM
[2]
  GI50: 1.31 µM
  TGI: 6.93 µM
[3]
  GI50: 2.31 µM
  TGI: > 100 µM
[4]
  GI50: 2.05 µM
  TGI: 15.4 µM
[5]
  GI50: 1.86 µM
  TGI: 23.7 µM
[6]
  GI50: 0.322 µM
  TGI: 4.46 µM
[7]
  GI50: 2.3 µM
  TGI: 11 µM
[8]
  GI50: 0.942 µM
  TGI: > 39.2 µM
[9]
  GI50: 8.31 µM
  TGI: > 100 µM
[10]
  GI50: 2.68 µM
  TGI: > 30.8 µM

## O=CC(O)C(O)C(OC1OC(CO)C(O)C(O)C1O)C(O)CO (configuration not stated) (tested in a mixture with another compound)
[1]
  TGI: > 100 µM
[2]
  TGI: > 100 µM
[3]
  TGI: > 100 µM
[4]
  TGI: > 100 µM
[5]
  TGI: > 100 µM
[6]
  TGI: > 100 µM
[7]
  TGI: > 100 µM
[8]
  TGI: > 100 µM
[9]
  TGI: > 100 µM
[10]
  TGI: > 100 µM
